System: Deroceras reticulatum
Test: Split box trial: slug damage to lettuce seedlings / slug repellency
Type: in vivo
Description: A split box trial was conducted using Deroceras reticulatum as the slug species and lettuce seedling as the food source. There were 5 split treatments with each treatment replicated four times using a simple randomized block design. Each plot was a single enclosed cage of dimensions 0.6 m×0.4 m. Each cage was of opaque plastic construction with rigid sides and a removable fine muslin top to prevent escape of the slugs. The cages were each filled with natural loam soil to a depth of approximately 7 cm, which was consolidated to prevent slug escape. Half of each box was covered with a polythene sheet before spraying to prevent the spray from reaching the soil on half of the box. […] Following the application of fluensulfone 250 CS, one treatment was incorporated into the soil by mixing the top 2 cm of the soil. The other applications had no soil incorporation. Lettuce plants were planted into the soil either seven or two days after spraying. At these intervals after spraying, six lettuce plants were planted into each cage, three in the treated side and three in the untreated side. After transplanting the lettuce plants, eight adult slugs were introduced into the centre of each cage. The soil was kept damp for the duration of the trials. [table] All sprayed treatments applied in 200 l/ha water. Assessments were carried out after the introduction of the slugs. Severity of leaf damage was assessed using a % scale where 0=no damage and 100=total loss of plant foliage. Incidence of plant damage was assessed by counting the actual number of plants showing damage.

O=S(=O)(CCC(F)=C(F)F)c1ncc(Cl)s1 [fluensulfone]
numbers of damaged lettuce plants (all fluensulfone treated boxes, compared to the untreated box): reduced compared to the untreated box | amount of damage caused to the lettuce plants (damage severity) (treated boxes compared to the untreated box): reduced | effect on live slugs (repellency) (treated boxes, slugs avoided the sprayed side and migrated to the untreated side): repellent effect

— US20170295788A1, “USE OF HETEROCYCLIC FLUOROALKENYL SULFONE COMPOUNDS FOR REPELLING MOLLUSCS” (Adama Makhteshim Ltd., priority 2014, published 2017)
